Experiment [1] deals with recombinant protein Wee-1 (Homo sapiens (Human), UniProt P30291). Nature of the experiment: HTRF assay for inhibiting enzymatic activity of recombinant protein Wee-1. Conditions: compounds up to 200 nM, read-out: (IC50) Inhibitory activity against recombinant protein Wee-1. The class given is biochemical. The method, then: The inhibitory effect of the compounds on the enzyme activity of recombinant protein Wee-1 was determined by HTRF. The procedures are as follows:
After DMSO or serially diluted compounds (up to 200 nM, 1:5 diluted) and recombinant proteins were co-incubated in a kinase buffer at 37° C. for 30 min before Fluorescein-PolyGAT and ATP were added, and the reaction was initiated by addition of a substrate. After incubation at room temperature for 90 min, an antibody and a detection solution were added, and after further incubation at room temperature for 60 min, fluorescence values were detected (excitation wavelength: 340 nm, emission wavelengths: 495 and 520 nm). The 520 nm/495 nm fluorescence intensity ratio value was calculated, and compared with that of the DMSO group, and then the inhibition percentages and IC50 values of the compounds were calculated.
(TR-FRET usually uses a lanthanide donor and a delayed reading to cut background.)

The test system of a further experiment is MIA PaCa-2 cells. Nature of the experiment: In-vitro anti-proliferative activity in combination with gemcitabine on MIA PaCa-2 cells. Conditions: 72 h. The class given is cell-based. As to the method:
MIA PaCa-2 cells were seeded on a 384-well plate at 3000 cells/well, and 20 nM or 200 nM gemcitabine (GMC) was added. After overnight adherence culture, DMSO or the compounds serially 1:5-diluted from 100 nM were added. The viability was assessed 72 h after dosing by measuring the intracellular ATP content. The inhibition percentage of viable cells by the compounds was calculated by comparing with the DMSO group, and the IC50 value was calculated.

The mark [2] stands for this setting: with 20 nM gemcitabine, read-out: in combination with 20 nM GMC IC50.
Where [3] appears, read: with 200 nM gemcitabine, read-out: in combination with 200 nM GMC IC50.

In US20240158369A1, “PYRIMIDINE COMPOUND AS WEE-1 INHIBITOR” (WIGEN BIOMEDICINE TECHNOLOGY (SHANGHAI) CO., LTD., priority 2021, published 2024) one finds IC50 data, which are given here for 51 compounds.

Like-named read-outs stand apart in the source and are kept apart here.

Sequence of recombinant protein Wee-1 (P30291 whole entry): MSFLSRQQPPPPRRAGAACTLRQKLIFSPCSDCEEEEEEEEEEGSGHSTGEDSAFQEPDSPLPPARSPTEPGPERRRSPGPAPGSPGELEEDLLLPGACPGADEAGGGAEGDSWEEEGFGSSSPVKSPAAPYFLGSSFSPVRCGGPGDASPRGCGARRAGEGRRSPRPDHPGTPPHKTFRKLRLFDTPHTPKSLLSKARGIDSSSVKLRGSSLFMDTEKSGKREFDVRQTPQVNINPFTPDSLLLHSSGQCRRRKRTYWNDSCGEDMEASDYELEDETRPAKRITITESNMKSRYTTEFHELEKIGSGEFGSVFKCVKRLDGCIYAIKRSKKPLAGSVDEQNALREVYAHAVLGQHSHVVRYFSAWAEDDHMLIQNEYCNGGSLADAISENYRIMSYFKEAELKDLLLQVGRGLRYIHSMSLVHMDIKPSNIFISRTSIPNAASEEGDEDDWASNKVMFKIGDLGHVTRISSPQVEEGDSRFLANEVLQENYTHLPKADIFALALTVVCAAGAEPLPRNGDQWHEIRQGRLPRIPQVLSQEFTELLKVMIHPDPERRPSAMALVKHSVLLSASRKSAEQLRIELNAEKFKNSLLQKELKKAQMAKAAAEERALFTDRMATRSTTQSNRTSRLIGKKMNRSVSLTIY

In the case of `CN1CCc2ccc(Nc3ncc(-c4ccc(F)nc4)c(Nc4cccc(N=S(C)(C)=O)n4)n3)cc2C1` [Compound 108], the IC50 – broadly, the midpoint of a concentration-inhibition curve – in experiment [1] was 10 to 50 nM; in the experiment with MIA PaCa-2 cells (setting [2]) it was over 100 nM.
Consider `CN1CCc2c(C#N)cc(Nc3ncc(C#N)c(Nc4cccc(N=S(C)(C)=O)n4)n3)cc2C1` [Compound 41], for which the IC50 in experiment [1] is 10 to 50 nM; with MIA PaCa-2 cells (setting [3]), over 100 nM.
`CN1Cc2cc(Nc3ncc(C#N)c(Nc4cccc(N=S(C)(C)=O)n4)n3)ccc2C2(CC2)C1` [Compound 29]: the IC50 in experiment [1] is at most 10 nM; in the experiment on MIA PaCa-2 cells (setting [2]), 3.7 nM.
As for `CN1CCc2c(cc(Nc3ncc(C#N)c(Nc4cccc(N=S(C)(C)=O)n4)n3)cc2N2CCOCC2)C1` [Compound 116], the IC50 was at most 10 nM in experiment [1] and 1.3 nM in the experiment on MIA PaCa-2 cells (setting [2]).
As for `C#Cc1cnc(Nc2ccc3c(c2)CN(C)CC3)nc1Nc1cccc(N=S(C)(C)=O)n1` [Compound 107], the IC50 is at most 10 nM in experiment [1] and 26.6 nM with MIA PaCa-2 cells (setting [2]).
For the compound `CN1CCc2c(cc(Nc3ncc(C#N)c(Nc4cccc(N=S(C)(C)=O)n4)n3)cc2-c2ccccc2)C1` [Compound 111], the IC50 was at most 10 nM in experiment [1] and 6.5 nM in the experiment on MIA PaCa-2 cells (setting [2]).
On the same counts, the results for `C[C@@H]1CN(c2cc(Nc3ncc(C#N)c(Nc4cccc(N=S(C)(C)=O)n4)n3)cc3c2CCN(C)C3)C[C@@H](C)O1` [Compound 122] are at most 10 nM and 49 nM.
Taken in the same sequence, the figures for `CN1CCc2c(cc(Nc3ncc(C#N)c(Nc4cccc(N=S(C)(C)=O)n4)n3)cc2-c2cc[nH]n2)C1` [Compound 112] were at most 10 nM and over 100 nM.
On the same counts, the results for `CN1CCc2ccc(Nc3ncc(C(N)=O)c(Nc4cccc(N=S(C)(C)=O)n4)n3)cc2C1` [Compound 6] are over 50 nM and over 100 nM.
For the compound `CN1CCc2ccc(Nc3ncc(C#N)c(Nc4cccc(N=S(C)(C)=O)c4)n3)cc2C1` [Compound 64], the IC50 in experiment [1] is at most 10 nM; in the experiment with MIA PaCa-2 cells (setting [2]), 34 nM.
For the compound `C=Cc1cc(Nc2ncc(C#N)c(Nc3cccc(N=S(C)(C)=O)n3)n2)cc2c1CCN(C)C2` [Compound 42], the IC50 in experiment [1] is at most 10 nM; in the experiment with MIA PaCa-2 cells (setting [3]), 10 nM.
Consider `CN1CCc2ccc(Nc3ncc(-c4cn[nH]c4)c(Nc4cccc(N=S(C)(C)=O)n4)n3)cc2C1` [Compound 10], for which the IC50 was over 50 nM in experiment [1] and over 100 nM with MIA PaCa-2 cells (setting [2]).
Regarding `CN1CCc2ccc(Nc3ncc(C#N)c(-c4cn(C)c5c(N=S(C)(C)=O)cccc45)n3)cc2C1` [Compound 79], the IC50 in experiment [1] is at most 10 nM; in the experiment on MIA PaCa-2 cells (setting [3]) it was over 100 nM.
Consider `CS(C)(=O)=Nc1cccc(Nc2nc(Nc3ccc4c(c3)CCC(N3CCCC3)CC4)ncc2C#N)n1` (stereo not drawn) [Compound 146], for which the IC50 in experiment [1] is at most 10 nM; with MIA PaCa-2 cells (setting [2]) it was 4.8 nM.
In the case of `CN1CCc2c(cc(Nc3ncc(C#N)c(Nc4cccc(N=S(C)(C)=O)n4)n3)cc2C2=CCCCC2)C1` [Compound 152], the half-maximal inhibitory concentration (IC50) in experiment [1] is at most 10 nM; in the experiment on MIA PaCa-2 cells (setting [2]), 3.8 nM.
`CN1CCc2ccc(Nc3ncc(C#N)c(-n4cnc5c(N=S(C)(C)=O)cccc54)n3)cc2C1` [Compound 80]: the IC50 in experiment [1] is 10 to 50 nM; in the experiment on MIA PaCa-2 cells (setting [3]), over 100 nM.
Regarding `COc1cc2c(cc1Nc1ncc(C#N)c(Nc3cccc(N=S(C)(C)=O)n3)n1)CN(C)CC2` [Compound 147], the IC50 in experiment [1] was at most 10 nM; with MIA PaCa-2 cells (setting [2]), 50 nM.
On to `CN1CCc2ccc(Nc3ncc(C#N)c(N4CCc5c(N=S(C)(C)=O)cccc54)n3)cc2C1` [Compound 77], for which the half-inhibitory concentration (IC50) is at most 10 nM in experiment [1] and over 100 nM in the experiment with MIA PaCa-2 cells (setting [3]).
On the same counts, the results for `CN1CCc2c(cc(Nc3ncc(C#N)c(Nc4cccc(N=S(C)(C)=O)n4)n3)cc2N2CCCC2)C1` [Compound 19] are at most 10 nM and 640 nM.
Consider `COC/C=C/c1cc(Nc2ncc(C#N)c(Nc3cccc(N=S(C)(C)=O)n3)n2)cc2c1CCN(C)C2` [Compound 129], for which the IC50 in experiment [1] was at most 10 nM; with MIA PaCa-2 cells (setting [2]), 4.2 nM.
For `CN1CCc2c(cc(Nc3ncc(C#N)c(Nc4cccc(N=S(C)(C)=O)n4)n3)cc2C(F)(F)F)C1` [Compound 20], the IC50 in experiment [1] is at most 10 nM; in the experiment on MIA PaCa-2 cells (setting [2]) it was 25 nM.
Consider `CC1CN(c2cc(Nc3ncc(C#N)c(Nc4cccc(N=S(C)(C)=O)n4)n3)cc3c2CCN(C)C3)CCO1` (stereo not drawn) [Compound 123], for which the IC50 is at most 10 nM in experiment [1] and 28 nM in the experiment with MIA PaCa-2 cells (setting [2]).
Turning to `CN1CCc2c(cc(Nc3ncc(C#N)c(Nc4cccc(N=S(C)(C)=O)n4)n3)cc2C2=CCOCC2)C1` [Compound 118], the values for the IC50 (in experiment [1]; in the experiment on MIA PaCa-2 cells (setting [2])) were at most 10 nM and 1.1 nM, respectively.
On the same counts, the results for `CN1CCc2ccc(Nc3nccc(Nc4cccc(N=S(C)(C)=O)n4)n3)cc2C1` [Compound 145] are over 50 nM and over 100 nM.
For the compound `CN1CCc2ccc(Nc3ncc(S(C)(=O)=O)c(Nc4cccc(N=S(C)(C)=O)n4)n3)cc2C1` [Compound 5], the IC50 in experiment [1] is over 50 nM; in the experiment with MIA PaCa-2 cells (setting [2]), over 100 nM.
On the same counts, the results for `CN1CCc2ccc(Nc3ncc(-c4ccco4)c(Nc4cccc(N=S(C)(C)=O)n4)n3)cc2C1` [Compound 9] are over 50 nM and over 100 nM.
Take `Cc1cc(Nc2ncc(C#N)c(Nc3cccc(N=S(C)(C)=O)n3)n2)cc2c1CCN(C)C2` [Compound 12]: the IC50 was at most 10 nM in experiment [1] and 1.4 nM with MIA PaCa-2 cells (setting [2]).
With `COc1cc(Nc2ncc(C#N)c(Nc3cccc(N=S(C)(C)=O)n3)n2)cc2c1CCN(C)C2` [Compound 22], the IC50 is at most 10 nM in experiment [1] and 1.2 nM in the experiment with MIA PaCa-2 cells (setting [3]).
For `CN1CCc2c(cc(Nc3ncc(C#N)c(Nc4cccc(N=S(C)(C)=O)n4)n3)cc2N2CCCCC2)C1` [Compound 115], the IC50 in experiment [1] is at most 10 nM; in the experiment on MIA PaCa-2 cells (setting [2]), 9.3 nM.
In the case of `C=C(C)c1cc(Nc2ncc(C#N)c(Nc3cccc(N=S(C)(C)=O)n3)n2)cc2c1CCN(C)C2` [Compound 15], the IC50 in experiment [1] is at most 10 nM; in the experiment with MIA PaCa-2 cells (setting [2]), 1.8 nM.
With `CN1CCN(c2ccc(Nc3ncc(C#N)c(Nc4cccc(N=S(C)(C)=O)n4)n3)cc2)CC1` [Compound 61], the IC50 was at most 10 nM in experiment [1] and 7.5 nM with MIA PaCa-2 cells (setting [2]).
Taken in the same sequence, the figures for `C#Cc1cc(Nc2ncc(C#N)c(Nc3cccc(N=S(C)(C)=O)n3)n2)cc2c1CCN(C)C2` [Compound 43] were at most 10 nM and 21.2 nM.
On the same counts, the results for `CN1CCc2c(cc(Nc3ncc(C#N)c(Nc4cccc(N=S(C)(C)=O)n4)n3)cc2C2=CCCC2)C1` [Compound 17] are at most 10 nM and 11 nM.
As to `CCCc1cc(Nc2ncc(C#N)c(Nc3cccc(N=S(C)(C)=O)n3)n2)cc2c1CCN(C)C2` [Compound 149], the IC50 in experiment [1] is at most 10 nM.
Same read-out and setting: under `CN1CCc2c(CCCN)cc(Nc3ncc(C#N)c(Nc4cccc(N=S(C)(C)=O)n4)n3)cc2C1` [Compound 136] stands at most 10 nM.
On to `CCc1cc(Nc2ncc(C#N)c(Nc3cccc(N=S(C)(C)=O)n3)n2)cc2c1C(C)(C)CN(C)C2` [Compound 37], for which, in experiment [1], the IC50 was at most 10 nM.
On the same count and under the same terms, for `CN1Cc2ccc(Nc3ncc(C#N)c(Nc4cccc(N=S(C)(C)=O)n4)n3)cc2C1` [Compound 59] the value was at most 10 nM; for `Cc1cc(Nc2ncc(C#N)c(Nc3ccc(F)c(N=S(C)(C)=O)n3)n2)cc2c1CCN(C)C2` [Compound 73], at most 10 nM.
Still for that read-out and setting: for `CN1CCc2ccc(Nc3ncc(C#N)c(Nc4cc(N=S(C)(C)=O)ccn4)n3)cc2C1` [Compound 67] the value was at most 10 nM; for `CN1CCc2c(Cl)cc(Nc3ncc(C#N)c(Nc4cccc(N=S(C)(C)=O)n4)n3)cc2C1` [Compound 26], at most 10 nM; for `CN1CCCc2ccc(Nc3ncc(C#N)c(Nc4cccc(N=S(C)(C)=O)n4)n3)cc2C1` [Compound 54], at most 10 nM.
Still for that read-out and setting: for `COc1cc(Nc2ncc(C#N)c(Nc3cccc(N=S(C)(C)=O)n3)n2)cc2c1C(C)(C)CN(C)C2` [Compound 40] the value was at most 10 nM; for `CC(C)c1cc(Nc2ncc(C#N)c(Nc3ccc(F)c(N=S(C)(C)=O)n3)n2)cc2c1CCN(C)C2` [Compound 91], at most 10 nM.
Regarding `CCc1cc(Nc2ncc(C#N)c(Nc3cccc(N=S(=O)(CC)CC)n3)n2)cc2c1CCN(C)C2` [Compound 158], the IC50 in experiment [1] is at most 10 nM.
On the same count and under the same terms, under `COCCN1CCc2ccc(Nc3ncc(C#N)c(Nc4cccc(N=S(C)(C)=O)n4)n3)cc2C1` [Compound 49] stands at most 10 nM; under `CN1CCc2ccc(Nc3ncc(C#N)c(Nc4nc(N=S(C)(C)=O)cc5ccccc45)n3)cc2C1` [Compound 72], at most 10 nM; under `CN1CCc2ccc(Nc3ncc(C#N)c(Nc4cncc(N=S(C)(C)=O)c4)n3)cc2C1` [Compound 66], at most 10 nM.
On the same count and under the same terms, for `COc1cc(Nc2ncc(C#N)c(Nc3cccc(N=S(C)(C)=O)n3)n2)cc2c1C1(CC1)CN(C)C2` [Compound 34] the value was at most 10 nM; for `CN1CCc2ccc(Nc3ncc(C#N)c(Nc4cccc(N=S(C)(C)=O)n4)n3)cc2C1(C)C` [Compound 104], at most 10 nM.
Still for that read-out and setting: under `CCc1cc(Nc2ncc(C#N)c(Nc3cccc(N=S4(=O)CCCC4)n3)n2)cc2c1CCN(C)C2` [Compound 160] stands at most 10 nM; under `CN1CCc2c(cc(Nc3ncc(C#N)c(Nc4cccc(N=S(C)(C)=O)n4)n3)cc2-c2ccncc2)C1` [Compound 126], at most 10 nM.
